Source: paper PMC6353898, “A Rational Approach for Creating Peptides Mimicking Antibody Binding” (Scientific Reports, 2019)
pIC50: −log10 of the molar value. Where two headings read alike, the source gives them in different places. Square brackets hold non-standard residues; d marks the D form. Ends that are not written are not given here. Peptide text beside a SMILES is read from it. * marks the point of attachment. Dolaproine = CO[C@@H]([C@@H]1CCCN1)[C@@H](C)C(=O)O; Dil = CC[C@H](C)[C@H](NC)[C@@H](CC(=O)O)OC; X1 = C[C@@H](N*)[C@@H](O)c1ccccc1; NMeV = CN[C@H](C(=O)O)C(C)C

What was measured:
[1] = tested on: MDA MB 468 cells; assay: In vitro cytotoxicity (SRB), MDA MB 468; assay type: cell-based, human
Description: (§1) Cells were cultured to 80% confluency in T75 culture flasks using DMEM as growth medium, respectively. The cells were seeded onto 96 well plates and grown for 24 h to reach 50% confluency.
(§2) At the end of the incubation period, the cells were fixed using 10% trichloroacetic acid, followed by washing with distilled water and drying. The cellular proteins were stained using 50 μL of 0.4% Sulforhodamine B (SRB) in 1% acetic acid. Unbound SRB was washed with 1% acetic acid and the plates were dried overnight. The cell bound SRB was then solubilized using 200 μL of 10 mM unbuffered tris base solution. SRB absorbance was measured at 560 nm wavelength using a plate reader. The percent viabilities of cells were plotted as a function of log concentration and data was analyzed in GraphPad Prism Version 5.0 software (GraphPad Software Inc, CA, USA) using nonlinear-regression curve fit (variable slope four parameter equation).

[2] = tested on: A431 cells; assay: In vitro cytotoxicity (SRB), A431; assay type: cell-based
Description: as §1, §2

[3] = tested on: HEK 293 cells; assay: In vitro cytotoxicity (SRB), HEK 293; assay type: cell-based, human
Description: as §1, §2

[4] = molecular target: bovine serum albumin (BSA) (Bos taurus, UniProt P02769); details: pH 7.4
Description: Surface plasmon resonance (SPR) studies were conducted using the Dual Channel SPR Spectrometer SPR7000DC (Reichert Technologies, New York, USA) to determine the binding affinity of peptides to EGFR protein. All experiments were carried out at 25 °C. Phosphate buffer saline (PBS) with 0.01% Tween 20 (pH7.4) was filtered and thoroughly degassed before use. EGFR (20 µg/mL) recombinant human protein and bovine serum albumin (BSA 20 µg/mL) were covalently attached to the left channel of 500,000 Da carboxymethylated dextran sensor chips using 1-ethyl-3-(3-dimethylaminopropyl)-carbodiimide (EDC) and N-hydroxysuccinimide (NHS) chemistry. The chips were then blocked by passing ethanolamine for 8 minutes at a rate of 10 µL/min.
All peptides were injected as soluble analytes in PBS with 0.01% Tween 20 at different concentrations with an injection speed at 15 µL/min. […] The bound surface was regenerated by sequential injections of 10 mM glycine in PBS (pH 2.5).
The sensorgrams from SPR were globally treated using Scrubber 2 software (BioLogic Software Pty Ltd, Australia), and kinetic constants kon and koff were determined by global fitting analyses of the titration curves using the 1:1 Lagmurian interaction model considering the mass transport. The equilibrium dissociation constant (KD) was calculated from the koff/kon ratio.

[5] = molecular target: EGFR recombinant human protein (Homo sapiens, UniProt P00533); assay: Surface plasmon resonance, EGFR as immobilized surface; assay type: binding; details: SPR, 25 °C, PBS with 0.01% Tween 20 pH 7.4
Description: All experiments were carried out at 25 °C.

Chain of EGFR recombinant human protein (P00533 25-645 limits assumed): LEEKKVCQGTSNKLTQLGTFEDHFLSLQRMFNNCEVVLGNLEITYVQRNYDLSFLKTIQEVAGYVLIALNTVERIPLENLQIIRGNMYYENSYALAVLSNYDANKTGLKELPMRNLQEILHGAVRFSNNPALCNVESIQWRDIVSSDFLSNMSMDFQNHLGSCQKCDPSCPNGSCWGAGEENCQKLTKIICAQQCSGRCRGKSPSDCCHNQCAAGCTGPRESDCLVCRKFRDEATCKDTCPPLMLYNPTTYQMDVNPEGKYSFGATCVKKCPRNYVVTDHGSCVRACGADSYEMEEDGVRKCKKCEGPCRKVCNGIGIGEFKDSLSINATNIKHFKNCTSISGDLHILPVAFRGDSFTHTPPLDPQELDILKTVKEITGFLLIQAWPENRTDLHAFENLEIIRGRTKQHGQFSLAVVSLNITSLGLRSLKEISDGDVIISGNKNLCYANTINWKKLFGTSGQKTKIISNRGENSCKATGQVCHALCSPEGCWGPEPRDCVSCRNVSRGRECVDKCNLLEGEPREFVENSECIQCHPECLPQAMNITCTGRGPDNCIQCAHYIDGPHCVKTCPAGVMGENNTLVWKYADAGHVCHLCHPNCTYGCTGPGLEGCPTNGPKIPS
Chain of bovine serum albumin (BSA) (P02769 25-607): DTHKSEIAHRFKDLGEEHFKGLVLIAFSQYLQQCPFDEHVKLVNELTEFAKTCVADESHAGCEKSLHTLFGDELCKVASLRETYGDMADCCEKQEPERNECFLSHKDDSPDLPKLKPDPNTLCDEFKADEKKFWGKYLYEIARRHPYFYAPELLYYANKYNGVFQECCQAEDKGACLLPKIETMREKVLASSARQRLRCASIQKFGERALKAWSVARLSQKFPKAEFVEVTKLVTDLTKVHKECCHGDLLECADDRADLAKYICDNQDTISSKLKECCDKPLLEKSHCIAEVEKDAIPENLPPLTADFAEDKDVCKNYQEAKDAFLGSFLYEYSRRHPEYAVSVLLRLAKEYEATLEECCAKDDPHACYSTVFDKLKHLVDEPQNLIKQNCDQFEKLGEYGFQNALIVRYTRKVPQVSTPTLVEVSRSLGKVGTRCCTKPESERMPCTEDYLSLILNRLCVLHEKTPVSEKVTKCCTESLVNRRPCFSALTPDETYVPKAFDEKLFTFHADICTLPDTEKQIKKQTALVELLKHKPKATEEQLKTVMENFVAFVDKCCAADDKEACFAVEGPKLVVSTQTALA

CC[C@H](C)[C@@H]([C@@H](CC(=O)N1CCC[C@H]1[C@H](OC)[C@@H](C)C(=O)N[C@H](C)[C@@H](O)c1ccccc1)OC)N(C)C(=O)[C@@H](NC(=O)[C@@H](NC)C(C)C)C(C)C [MMAE, Monomethyl Auristatin E, reference compound] (H-[NMeV]V[Dil][Dolaproine]-X1)
pIC50 ([1]; SRB, 72 hours at 37 °C, 0.00001 to 10000 nM, read-out: IC50 (MDA MB 468)): 10.93
pIC50 ([2]; SRB, 72 hours at 37 °C, 0.00001 to 10000 nM, read-out: IC50 (A431)): 10.61
pIC50 ([3]; SRB, 72 hours at 37 °C, 0.00001 to 10000 nM, read-out: IC50 (HEK 293)): 10.20

WSGENGPGFYDYEA [Pep11]
KD BSA / binding to BSA, no value [4]: did not show binding
pIC50 ([1]; 72 h): 6.38
pIC50 ([2]; 72 h): 6.41
pIC50 ([3]; 72 h): 5.98

SGEWAYDGYEPNFG [Pep25]
KD EGFR / binding to EGFR, no value [5]: did not bind
